In patent US10322132B2, “Prevention or treatment of uratic or gouty diseases” (SHANTON PHARMA CO., LTD., priority 2015, dated 2019):

Experiments:
[1] = Pharmacokinetics experiment in cynomolgus monkeys, intravenous; assay type: in vivo, cynomolgus monkeys (Macaca fascicularis); settings: 5 mg/kg, Mean ± SD, n = 3
Description: Three non-naïve cynomolgus monkeys were administered with test compounds A, B and D at a dose of 5 mg/kg by intravenous injection and with test compound C at a dose of 3 mg/kg by intravenous injection, with one compound being tested at a time. Blood was collected from the vein before administration and 1 h, 3 h, 6 h and 24 h after administration, and plasma was isolated. The plasma was analyzed by a 4000 Q Trap LC-MS/MS instrument. The concentrations of the test samples were output by Analyst 1.6.1 from AB Company. The parameters ( ) such as the mean, standard deviation, and coefficient of variation were calculated using Microsoft Excel, wherein the values directly output by Analyst 1.6.1 requires no calculation. PK parameters were calculated using Pharsight Phoenix 6.2 software (NCA model).

serum uric acid = assay: Uric acid-lowering experiment in cynomolgus monkeys; assay type: in vivo; parameters: Reduction rate of serum uric acid: concentration or dose not given beside the values; settings: for Reduction rate of serum uric acid / Content of serum uric acid: intravenous; for Reduction rate of serum uric acid: 3 h after administration vs before administration; for Content of serum uric acid: 3 h after administration
Description: The experiment was done by reference to Komoriya K, Osada Y, Hasegawa M, Horiuchi H, Kondo S, Couch R C, Griffin T B. Hypouricemic effect of allopurinol and the novel xanthine oxidase inhibitor TEI-6720 in chimpanzees. Eur J Pharmacol. 1993 Dec. 21; 250(3): 455-60.
Each compound was tested in three non-naïve cynomolgus monkeys (1 #, 2 # and 3 #), wherein the monkeys were administered with test samples by intravenous injection. Blood was collected from the vein before administration and 1 h, 3 h, 6 h and 24 h after administration. The blood was left still at room temperature. The serum was collected by centrifugation. The content of uric acid in serum was measured. Reduction rate of serum uric acid=(average uric acid content before administration−average uric acid content after administration)/average uric acid content before administration*100%.

[2] = test system: MSU-induced gouty arthritis; assay: MSU-induced gouty arthritis, toe volume; assay type: in vivo, Male Wistar rats; settings: for Inhibition of toe volume change (%): vs model group; for effect on increase of the toe volumes in the test rats (in words): compared with the model group
Description: The experiment was done by reference to Hsin-Pai Lee, Shi-Ying Huang, Yen-You Lin. Soft Coral-Derived Lemnalol Alleviates Monosodium Urate-Induced Gouty Arthritis in Rats by Inhibiting Leukocyte Infiltration and iNOS, COX-2 and c-Fos Protein Expression. […] 2013, 11, 99-113.
One gram of uric acid was weighed, introduced into 200 mL of boiling water and heated. Then, NaOH (2 mol/L) was added until pH reached 9. The solution became clear, and was cooled at room temperature and then left still overnight. MSU was obtained after filtration, which was dried at 60° C. for 24 h and then sterilized at a high temperature of 180° C.
(§1) The toe volumes of the rats were measured one day prior to the experiment. The rats were administered with the solvent by subcutaneous injection in the model group at a dose of 5 mL/kg, while the rats were administered with test samples by subcutaneous injection in administration groups at a dose of 5 mg/kg. Rats were anesthetized immediately after administration and were injected with 0.09 mL of MSU suspension into the joint cavity of the left ankle. The volume of the left toe was measured in rats 9 h after the injection of MSU into the ankle joint cavity.
as §1, with “dose of 15 mL/kg, while” for “dose of 5 mL/kg, while”, “dose of 15 mg/kg or 10 mg/kg. Rats” for “dose of 5 mg/kg. Rats”
The toe volumes of rats were measured one day prior to the experiment. The rats were administered with the solvent by subcutaneous injection in the model group at a dose of 15 mL/kg, while the rats were administered with the test sample by subcutaneous injection in administration group at a dose of 15 mg/kg. Rats were anesthetized immediately after administration and were injected with 0.09 mL of MSU suspension into the joint cavity of the left ankle. The volume of the left toe in each rat was measured 9 h after the injection of MSU into the ankle joint cavity.

[3] = test system: MSU-induced gouty arthritis; assay: Pain value in rats with gouty arthritis (electronic Von Frey pain threshold detector); assay type: in vivo, Male Wistar rats
Description: The rats with gouty arthritis were placed in a metabolic cage, and the palm center of the left foot of each rat was irritated with an electronic Von Frey pain threshold detector. The maximum stress value was recorded when each rat withdrew its foot, and the value was the pain value of that rat.

[4] = biological target: T1, human urate transporter 1 (hURAT1) (Homo sapiens, UniProt Q96S37); assay: Uptake of 14C-labeled uric acid in hURAT1 transfected cells; assay type: cell-based; settings: 14C uric acid uptake, hURAT1-transfected HEK-293T cells, 5 min at 37° C.; read-out: IC50 (μM), inhibition of hURAT1 activity
T1 construct: expressed in transfected cells; host or cells: HEK-293T
T1 sequence (Q96S37 1-553): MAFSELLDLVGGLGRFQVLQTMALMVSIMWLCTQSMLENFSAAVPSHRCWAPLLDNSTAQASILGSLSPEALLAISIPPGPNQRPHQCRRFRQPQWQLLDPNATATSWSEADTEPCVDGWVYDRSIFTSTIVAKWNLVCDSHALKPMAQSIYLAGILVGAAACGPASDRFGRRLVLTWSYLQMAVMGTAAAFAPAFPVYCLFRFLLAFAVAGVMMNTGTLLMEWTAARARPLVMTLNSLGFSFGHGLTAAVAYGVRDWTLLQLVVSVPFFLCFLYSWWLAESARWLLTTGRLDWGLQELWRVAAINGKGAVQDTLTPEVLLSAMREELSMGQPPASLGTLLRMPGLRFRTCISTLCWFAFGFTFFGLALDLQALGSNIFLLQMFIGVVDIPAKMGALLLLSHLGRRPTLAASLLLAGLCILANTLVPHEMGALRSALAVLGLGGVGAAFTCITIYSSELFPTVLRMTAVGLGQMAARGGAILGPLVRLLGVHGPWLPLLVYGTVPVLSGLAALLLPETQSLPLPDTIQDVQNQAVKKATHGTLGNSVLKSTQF
Description: The compounds were prepared into the stock solutions (5 mM) with dimethyl sulfoxide (DMSO). This experiment involved 8 concentrations in total. The final concentrations were 5000 nM, 1250 nM, 312.5 nM, 78.1 nM, 19.5 nM, 4.9 nM, 1.2 nM and 0.3 nM, respectively.
Preparation of buffers: chlorine-free HBSS buffer (125 mM sodium gluconate, 4.8 mM potassium gluconate, 1.3 mM calcium gluconate, 1.2 mM KH2PO4, 1.2 mM MgSO4, 5.6 mM glucose, 25 mM 4-hydroxyethylpiperazine ethanesulfonic acid (HEPES) (pH 7.4)); lysis buffer (100 mM NaOH)
Transfected cells stably expressing human urate transporter 1 (hURAT1) were obtained by: placing human embryonic kidney cells (HEK-293T) in a cell culture plate containing complete medium, incubating the cells for 24 h at 37° C. in 5% CO2, rinsing the cells with phosphate buffered saline (PBS) followed by trypsin digestion to prepare a suspension containing single cells; placing 8×10^6 cells a cell culture plate, adding dropwise TransIT-293 Reagent:DNA complexes (1.5 ml of Opti-MEM I Reduced-Serum Medium, 15 g of plasmid DNA, and 45 μL of TransIT-293 Reagent were mixed uniformly and then incubated at room temperature for 30 min) to different areas of the cell culture plate, gently shaking the cell culture plate to homogeneously distribute the TransIT-293 Reagent:DNA complexes, and incubating the cells for 48 h at 37° C. in 5% CO2.
Uptake of ^14C-labeled uric acid in hURAT1 transfected cells: (1) hURAT1-transfected cells were placed in a Poly-D-lysine 96-well microplate at a cell density of 6×10^4/well, and left still overnight at 37° C. in 5% CO2; (2) after the cells were placed in the Poly-D-lysine 96-well microplate for 12 h, the cells were washed for 3 times with 200 μl of pre-heated chlorine-free HBSS buffer per well, and the washing solution in the microplate was removed; (3) 50 μl of uric acid-containing [8-14C] […]

[5] = Uric acid-lowering test in monkeys having hyperuricemia (UA subcutaneous injection); assay type: in vivo, cynomolgus monkeys; settings: cynomolgus monkey, serum, sc; uric acid (UA) by subcutaneous injection at the nape, cynomolgus monkeys from the model group; read-out: half-life (t½z) (converted)
Description: The experiment was conducted by reference to Komoriya K, Osada Y, Hasegawa M, Horiuchi H, Kondo S, Couch R C, Griffin T B. Hypouricemic effect of allopurinol and the novel xanthine oxidase inhibitor TEI-6720 in chimpanzees. Eur J Pharmacol. 1993 Dec. 21; 250(3): 455-60.
In the Model group, three non-naïve cynomolgus monkeys (1 #, 2 # and 3 #) were administered with UA by subcutaneous injection at the nape. Blood was collected from the vein before UA administration and 0.5 h, 1 h, 2 h, 4 h, 6 h and 24 h after UA administration. The blood was left still at room temperature. The serum was collected by centrifugation. The content of serum uric acid was measured.
In the Administration group, three non-naïve cynomolgus monkeys (1 #, 2 # and 3 #) were administered with the test sample by intravenous injection after 2 weeks of clearance. Blood was collected from the vein before administration and 2 h after administration of test sample. Then, the monkeys were administered with UA by subcutaneous injection at the nape and blood was collected from the vein 1 h, 2 h and 4 h after the UA administration. The blood was left still at room temperature. The serum was collected by centrifugation. The content of serum uric acid was measured. Reduction rate of serum uric acid in healthy monkeys administered with test sample=(average uric acid content before administration−average uric acid content 2 h after administration of test sample)/average uric acid content before administration*100%, Reduction rate of serum uric acid in monkeys having hyperuricemia after administration of test sample=(uric acid content after UA administration in the model group−uric acid content after UA administration in the administration group)/uric acid content in the model group*(100%).
That was, the samples were collected before administration, 2 h after administration of test sample and 1 h, 2 h and 4 h after UA administration for determination of the serum uric acid content. The contents of serum uric acid in the model group and the administration group and the reduction rates of serum uric acid were shown in the following Tables 3-1, 3-2 and 3-3, respectively.

[6] = Example 6, 15 mg/kg subcutaneous, 9 h after MSU

SMILES	t1/2z [1] [min]	effect on serum uric acid levels in the test monkeys (in words) (serum uric acid; compared to the levels measured before administration)	Reduction rate of serum uric acid (serum uric acid; animal 1#) [%]	Reduction rate of serum uric acid (serum uric acid; animal 2#) [%]	Reduction rate of serum uric acid (serum uric acid; mean) [%]	Content of serum uric acid (serum uric acid; animal 1#) [µmol/L]	Content of serum uric acid (serum uric acid; animal 2#) [µmol/L]	Content of serum uric acid (serum uric acid; mean) [µmol/L]	Change of toe volume ([2]; Example 4, 5 mg/kg subcutaneous, 9 h after MSU injection into left ankle joint cavity) [mL]	Inhibition of toe volume change (%) ([2]; Example 4, 5 mg/kg subcutaneous, 9 h after MSU)	effect on increase of the toe volumes in the test rats (in words) ([2]; Example 4, 5 mg/kg)	Toe volume change [2, 6] [mL]	Inhibition of toe volume change (%) [2, 6] [%]	effect on increase of the toe volumes in the test rats (in words) ([2]; Example 6, 15 mg/kg)	Pain value ([3]; Example 6, 15 mg/kg subcutaneous, left foot, Von Frey) [g]	effect on pain in the test rats (in words) ([3]; Example 6, compared with the model group)	IC50 [4] [µM]	half-life [5] [min]
CCCCn1c(=O)[nH]c(=O)c2[nH]c(Cl)nc21 [Compound B, 8-chloro-3-butyl-3,7-dihydro-1H-purine-2,6-dione]	163 ± 21	significantly reduce	17.5	9.2	14.1	69.1	52.3	60.7	0.349	30.8	significantly inhibit	0.229	49.1	significantly inhibit	37.2	significantly reduce	3.02	
O=c1[nH]c(=O)c2[nH]c(=O)[nH]c2[nH]1 [uric acid (UA), uric acid]																		32.4
